Assay results as given in ChEMBL document CHEMBL1143687, “Synthesis of analogues of a flexible thiopyrylium photosensitizer for purging blood-borne pathogens and binding mode and affinity studies of their complexes with DNA” (Bioorg Med Chem, 2007).

Assays:
[1] = system: DNA; test: Binding affinity to calf thymus DNA by isothermal titration calorimetry; assay type: nucleic-acid assay; conditions: Bos taurus
[2] = Binding affinity to M13mp19 DNA by spectrophotometric titration method
[3] = system: Escherichia coli; test: Binding affinity to pUC19 DNA assessed as drug concentration to induce plasmid re-supercoiling by topoisomerase 1 DNA unwinding assay
[4] = Partition coefficient, log P by shake flask method; assay type: physicochemical; conditions: octanol/water
[5] = system: DNA; test: Binding affinity to calf thymus DNA by spectrophotometric titration method; assay type: nucleic-acid assay; conditions: Bos taurus

Row | SMILES | Kb [1] | Kb [2] | Kb [3] | logP [4] | Kb [5]
1 | CN(C)c1ccc(-c2cc(-c3ccc(N(C)C)cc3)[se+]c(C(C)(C)C)c2)cc1 | 3.9 10^5/M | 2.5 10^4/M | 22 10^6/M | 1.57 | 8.7 10^4/M
2 | CN(C)c1ccc(-c2cc(-c3ccc(N(C)C)cc3)[s+]c(C(C)(C)C)c2)cc1 | 4.2 10^5/M | 0.91 10^4/M | 23 10^6/M | 1.51 | 10.1 10^4/M
3 | CC(C)c1cc(-c2ccc(N(C)C)cc2)cc(-c2ccc(N(C)C)cc2)[s+]1 | – | 1.17 10^4/M | – | 0.23 | –
4 | CCc1cc(-c2ccc(N(C)C)cc2)cc(-c2ccc(N(C)C)cc2)[s+]1 | – | 1.8 10^4/M | – | 0.13 | –
5 | CCCCc1cc(-c2ccc(N(C)C)cc2)cc(-c2ccc(N(C)C)cc2)[s+]1 | – | 7.58 10^4/M | – | 1.63 | –
6 | Cc1cc(-c2ccc(N(C)C)cc2)cc(-c2ccc(N(C)C)cc2)[s+]1 | 1.7 10^5/M | 6.1 10^4/M | 66 10^6/M | 0.6 | 5.2 10^4/M
7 | CCCc1cc(-c2ccc(N(C)C)cc2)cc(-c2ccc(N(C)C)cc2)[s+]1 | 2.4 10^5/M | 3.47 10^4/M | 45 10^6/M | 0.82 | 5 10^4/M
